Measured values taken from patent US20190225643A1, “NOVEL NUCLEOSIDE ANALOGS AND USE THEREOF IN THERAPEUTIC TREATMENT” (CORNELL UNIVERSITY, priority 2016, published 2019).
Like-named read-outs stand apart in the source and are kept apart here.

Tests used:
IBL-1 (EBV+ DLBCL) = experiment: cells; assay type: cell-based
Method: (§1) Cell viability assays were performed by plating log-phase cells in RPMI complete media with 20% FBS at 1*10^5 cells/mL, with concentrations of 6-ETI or phospho-6-ETI ranging from 0.1 nM to 100 μM. ATP content at 24, 48 and 72 hours post-treatment was measured by the CellTiter-Glo kit (Promega, Madison, Wis.), or by Trypan blue assay as indicated. The LC50 for 6-ETI in each cell line was determined using online EC50 software at changbioscience.com or using GraphPad Prism to determine the LC50 for 6-ETI, phospho-6-ETI and nucleoside analogs in MM cell lines and primary MM patient samples.

U266 (MM) = experiment: cells; assay type: cell-based
Method: as §1

BC3 (PEL) = experiment: cells; assay type: cell-based
Method: as §1

ADK = ADK (Homo sapiens, UniProt P55263); conditions: known values; read-out: IC50 of ADK inhibition in intact cells; cited from earlier work
Chain of ADK (P55263 whole entry): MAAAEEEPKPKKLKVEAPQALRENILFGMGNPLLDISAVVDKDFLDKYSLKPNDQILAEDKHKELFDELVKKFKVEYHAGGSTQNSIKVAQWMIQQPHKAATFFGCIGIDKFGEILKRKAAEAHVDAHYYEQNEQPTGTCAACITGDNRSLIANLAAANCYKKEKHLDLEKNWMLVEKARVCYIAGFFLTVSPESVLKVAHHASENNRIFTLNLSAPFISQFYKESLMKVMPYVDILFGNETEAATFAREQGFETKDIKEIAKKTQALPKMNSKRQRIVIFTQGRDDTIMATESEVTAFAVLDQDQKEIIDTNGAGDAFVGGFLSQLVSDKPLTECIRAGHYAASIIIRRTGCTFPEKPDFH

[1] = test system: BC3 cells treated with 6-ETI; experiment: 6-ETI viability curves after ADK inhibitor pre-treatment; assay type: cell-based, human; conditions: pre-treatment with 1 μM ADK inhibitor
Method: as §1

PEL cell line = PEL cell line viability assay of C8-modified analogs; assay type: cell-based
Method: as §1

[2] = test system: BC3NFRen-luc #3 PEL xenograft; experiment: PEL xenograft model (BC3NFRen-luc #3 in NOD-SCID mice); assay type: in vivo; conditions: 200 mg/kg for 9 days
Method: The BC3 in vivo xenograft model was set up as previously described (6). Essentially, ˜4-6 week old male NOD-SCID mice (Jackson Labs Stock# 001303) were injected intraperitoneally (I.P.) with 1*10^7 BC3NFRen-luc #3 cells and followed by in vivo imaging every three days. After imaging on day 5 to confirm establishment of the tumor, the mice were randomized to vehicle, low dose and high dose cohorts, with average tumor burden distributed evenly across the groups. Each dose cohort contained 10 mice. Mice were treated for nine days beginning at randomization with vehicle (PBS-Tween80), low dose 6-ETI (150 mg/kg/day), or high dose 6-ETI (300 mg/kg/day). Mice were treated with 200 mg/kg of the 6-ETI analogs (phospho-6ETI and 6-ETI cAMP) for 9 days. We monitored mice for tumor growth by live imaging and weighing, with sacrifice point determined to be a net gain or loss of 10% body weight over a week. Upon reappearance of refractory tumors, mice were re-treated for a further 9-day interval, and followed for a total of 100 days. Compound effects were assessed on overall survival, progression-free survival and tumor burden by Kaplan-Meier curves generated using GraphPad Prism software, and determined p values by 2-tailed analysis with log-rank tests.

[3] = test system: colon (RKO, HCT116, DID1) and pancreatic (PA-TU-8988T) cancer cell lines; experiment: Viability of adenocarcinoma cell lines; assay type: cell-based
Method: as §1

[4] = test system: sensitive cell lines (expressing ADK at high levels); experiment: Viability in 6-ETI-sensitive cell lines; assay type: cell-based; conditions: p6-ETI: sensitive ADK-high lines; c6-ETI: PEL, MM, colon and pancreatic adenocarcinoma lines
Method: as §1

[5] = test system: MM cell lines JJN3, MM1S, U266 and CAG; experiment: CellTiter-Glo viability assay, MM cell lines; assay type: cell-based; conditions: 48 hrs
Method: as §1

[6] = test system: ADK-low resistant cell lines; experiment: Viability in ADK-low resistant cell lines; assay type: cell-based; conditions: some lines, not all
Method: as §1

[7] = Homo sapiens, 48 h, read-out: LC50 IBL-1 (DLBCL)
[8] = Homo sapiens, U-266, 48 h, read-out: LC50 U266 (MM) in nM
[9] = Homo sapiens, 48 h, read-out: LC50 BC3 (PEL) in nM
[10] = Homo sapiens, U-266, 48 h, read-out: LC50 U266 (MM)
[11] = Homo sapiens, 48 h, read-out: LC50 BC3 (PEL)

Sc1ncnc2nc[nH]c12 [6-Mercaptopurine]
CC50 (IBL-1 (EBV+ DLBCL); [7]): > 100000 nM
CC50 (U266 (MM); [8]): 10300 nM
CC50 (BC3 (PEL); [9]): 5140 nM

Nc1ncnc2nc(-c3ccc(N4CCOCC4)nc3)cc(-c3cccc(Br)c3)c12 [ABT-702]
IC50 (ADK): 0.051 µM
rescue from 6-ETI-induced cell death [1]: effectively rescued PEL cells from cell death

CCSc1ncnc2c1nc(Br)n2[C@@H]1O[C@H](CO)[C@@H](O)[C@H]1O [Br group at C8 position, 8-bromo, 6-thioehtyl purine riboside]
IC50 (PEL cell line): 8.13 µM

CCSc1ncnc2c1nc(Cl)n2[C@@H]1O[C@H](CO)[C@@H](O)[C@H]1O [C1 group at C8 position, 8-chloro, 6-thioethyl purine riboside]
IC50 (PEL cell line): 1.41 µM

Nc1nc(Cl)nc2c1ncn2[C@H]1C[C@H](O)[C@@H](CO)O1 [Cladribine]
CC50 (IBL-1 (EBV+ DLBCL); Homo sapiens, 48 h, read-out: LC50 IBL-1 (DLBCL) in nM): 290 nM
CC50 (U266 (MM); [8]): 29200 nM
CC50 (BC3 (PEL); [9]): 5240 nM

Nc1ncnc2c1c(I)cn2[C@@H]1C[C@H](N)[C@@H](O)[C@H]1O [Compound A-134974]
IC50 (ADK): 0.05 µM
rescue from 6-ETI-induced cell death [1]: effectively rescued PEL cells from cell death

O=c1[nH]cnc2c1ncn2[C@H]1CC[C@@H](CO)O1 [Didanosine]
CC50 (IBL-1 (EBV+ DLBCL); [7]): > 100000 nM
CC50 (U266 (MM); [10]): > 100000 nM
CC50 (BC3 (PEL); [11]): > 100000 nM

Nc1nc(F)nc2c1ncn2[C@@H]1O[C@H](CO)[C@@H](O)[C@@H]1O [Fludarabine]
CC50 (IBL-1 (EBV+ DLBCL); 48 hours, CellTiter-Glo, read-out: LC50 IBL-1 (DLBCL)): 28900 nM
CC50 (U266 (MM); 48 hours, CellTiter-Glo, read-out: LC50 U266 (MM)): 90700 nM
CC50 (BC3 (PEL); 48 hours, CellTiter-Glo, read-out: LC50 BC3 (PEL)): > 100000 nM

CCSc1ncnc2c1nc(N=[N+]=[N-])n2C1OC(CO)C(O)C1O (stereo not shown) [N3 group at C8 position]
IC50 (PEL cell line): 1.13 µM

Nc1ncnc2c1ncn2[C@@H]1O[C@H](CO)[C@@H](O)[C@@H]1O [Vidarabine]
CC50 (IBL-1 (EBV+ DLBCL); [7]): > 100000 nM
CC50 (U266 (MM); [10]): > 100000 nM
CC50 (BC3 (PEL); [11]): > 100000 nM

CCSc1ncnc2c1ncn2[C@@H]1O[C@@H]2COP(=O)(O)OC2C1O (stereo partly shown) [c6-ETI]
tumor growth in vivo [2]: effectively inhibited tumor growth in vivo
LC50 [3]: nanomolar range
effectiveness compared with 6-ETI [4]: equally as effective

CCSc1ncnc2c1ncn2[C@@H]1O[C@H](COP(=O)(O)O)[C@@H](O)[C@H]1O [p6-ETI]
tumor growth in vivo [2]: effectively inhibited tumor growth in vivo
effect on resistance of IBL-1 cells (IBL-1 (EBV+ DLBCL); IBL-1 express low levels of ADK, 48 hrs): partially overcomes resistance
LC50 [5]: high nM range
sensitivity of ADK-low resistant cell lines [6]: only partial sensitivity
LC50 [3]: nanomolar range
effectiveness compared with 6-ETI [4]: equally effective as 6-ETI
